Drawing on US9216991B2 (Ares Trading S.A., priority 2012, dated 2015), this text covers IC50 for 26 compounds.

Counter-ions that a name gives are not always drawn.

The target in the experiment is T1, IRAK4 (Homo sapiens, UniProt Q9NWZ3).
T1 construct: His (N); TEV cleavage site (N)
T1 sequence (Q9NWZ3 1-460): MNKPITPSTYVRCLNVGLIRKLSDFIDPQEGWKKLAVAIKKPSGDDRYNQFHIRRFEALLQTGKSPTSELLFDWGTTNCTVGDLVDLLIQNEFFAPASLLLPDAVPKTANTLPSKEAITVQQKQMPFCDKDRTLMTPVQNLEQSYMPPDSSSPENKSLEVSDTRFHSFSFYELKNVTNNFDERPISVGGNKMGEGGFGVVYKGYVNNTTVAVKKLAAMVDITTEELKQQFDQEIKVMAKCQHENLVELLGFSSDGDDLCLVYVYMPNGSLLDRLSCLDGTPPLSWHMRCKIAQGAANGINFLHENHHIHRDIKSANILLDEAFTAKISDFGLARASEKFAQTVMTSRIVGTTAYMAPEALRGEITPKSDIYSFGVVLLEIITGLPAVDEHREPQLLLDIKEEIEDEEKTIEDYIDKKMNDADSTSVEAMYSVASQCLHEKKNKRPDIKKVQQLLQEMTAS
The experiment can be described thus: IRAK4 Enzymatic Assay. It is filed as biochemical. Particulars: His-TEV-IRAK4 20 ng/well, ATP 2 μM, STK1-biotin peptide 300 nM, 3 hours at 30° C., FlashPlate radioactivity. As to the method:
IRAK4 is a human purified recombinant enzyme (His-TEV-IRAK1 (194-712)
IRAK4 hydrolyses ATP, autophosphorylates and phosphorylates a Serine/Threonine generic peptidic substrate (STK: 61ST1BLC from CisBio International based in Bagnols/Cèze FR).
Measurement of IRAK-4 inhibition is performed in streptavidin coated 384 well FlashPlate (PerkinElmer #SMP410A). His-TEV-IRAK4 (20 ng/well), ATP (2 μM, [^33P]ATP 0.25 μCi/well), STK1-biotin peptide (300 nM) and compounds in DMSO (range of concentrations from 20 μM to 1nM) or controls (2% DMSO) are incubated for 3 hours at 30° C. in assay buffer: Hepes pH7.0 50 mM, Fatty acid-free BSA 0.1%, Dithiothreitol DTT 2 mM, MgCl2 10 mM, EGTA 0.5 mM, Tween-20 0.01%, MnCl2 5 mM.
Kinase reaction is stopped by addition of EDTA. Supernatant is discarded, plates are washed three times with 150 mM NaCl and radioactivity is then measured in a Microbeta Trilux reader.
The IC50 is the point on the concentration scale where inhibition reaches its midpoint. In the case of `Cn1cc(-c2cccc(-c3ncc(-c4cnn(C5C[C@H]6CC[C@@H](C5)N6CC(O)C(F)(F)F)c4)cn3)c2)cn1` (stereo partly drawn) [Example 118, 1,1,1-Trifluoro-3-[(1R,5S)-3-(4-{2-[3-(1-methyl-1H-pyrazol-4-yl)-phenyl]-pyrimidin-5-yl}-pyrazol-1-yl)-8-aza-bicyclo[3.2.1]oct-8-yl]-propan-2-ol], the IC50 fell in the range of 100 to 1000 nM.
The same measure for `Cn1cc(-c2cccc(-c3ncc(-c4cnn(C5CCC(C(=O)O)CC5)c4)cn3)c2)cn1` (centres unmarked) [Example 62, 4-(4-{2-[3-(1-Methyl-1H-pyrazol-4-yl)-phenyl]-pyrimidin-5-yl}-pyrazol-1-yl)-cyclohexanecarboxylic acid]: 100 to 1000 nM.
The same measure for `Cn1cc(-c2cccc(-c3ncc(-c4cnn([C@H]5CC[C@H](OCC(C)(C)O)CC5)c4)cn3)c2)cn1` [Example 224, trans-2-Methyl-1-[4-(4-{2-[3-(1-methyl-1H-pyrazol-4-yl)-phenyl]-pyrimidin-5-yl}-pyrazol-1-yl)-cyclohexyloxy]-propan-2-ol]: less than 100 nM.
In the case of `Cn1cc(-c2cccc(-c3ncc(-c4cnn(Cc5ncco5)c4)cn3)c2)cn1` [Example 46, 2-[3-(1-Methyl-1H-pyrazol-4-yl)-phenyl]-5-(1-oxazol-2-ylmethyl-1H-pyrazol-4-yl)-pyrimidine], the IC50 was 1000 to 5000 nM.
Regarding `c1cc(-c2ccncc2)cc(-c2ncc(-c3cnn(C4CCNCC4)c3)cn2)c1` [Example 33, 5-(1-Piperidin-4-yl-1H-pyrazol-4-yl)-2-(3-pyridin-4-yl-phenyl)-pyrimidine hydrochloride], the IC50 lay in the range of 100 to 1000 nM.
The same measure for `Cn1cc(-c2cccc(-c3ncc(-c4cnn(C5CCCS(=O)(=O)C5)c4)cn3)c2)cn1` (centres unmarked) [Example 177, 5-[1-(1,1-Dioxo-hexahydro-1l6-thiopyran-3-yl)-1H-pyrazol-4-yl]-2-[3-(1-methyl-1H-pyrazol-4-yl)-phenyl]-pyrimidin]: less than 100 nM; for `Cn1cc(-c2cccc(-c3ncc(-c4cnn(CC(=O)N5C6CCC5CC(O)C6)c4)cn3)c2)cn1` (centres unmarked) [Example 128, 1-(3-Hydroxy-8-aza-bicyclo[3.2.1]oct-8-yl)-2-(4-{2-[3-(1-methyl-1H-pyrazol-4-yl)-phenyl]-pyrimidin-5-yl}-pyrazol-1-yl)-ethanone]: 100 to 1000 nM.
To `CNC(=O)C1CC(n2cc(-c3cnc(-c4cccc(-c5cnn(C)c5)c4)nc3)cn2)C1` (centres unmarked) [Example 157, 3-(4-{2-[3-(1-Methyl-1H-pyrazol-4-yl)-phenyl]-pyrimidin-5-yl}-pyrazol-1-yl)-cyclobutanecarboxylic acid methylamide] belongs 100 to 1000 nM; to `CCC(O)CNC(=O)[C@H]1CC[C@H](n2cc(-c3cnc(-c4cccc(-c5cnn(C)c5)c4)nc3)cn2)CC1` (stereo partly drawn) [Example 203, trans-4-(4-{2-[3-(1-Methyl-1H-pyrazol-4-yl)-phenyl]-pyrimidin-5-yl}-pyrazol-1-yl)-cyclohexanecarboxylic acid (2-hydroxy-butyl)-amide], less than 100 nM; to `Cn1cc(-c2cccc(-c3ncc(-c4cnn([C@H]5CC[C@H](C(=O)NC(C)(C)C)CC5)c4)cn3)c2)cn1` [Example 192, Trans-4-(4-{2-[3-(1-Methyl-1H-pyrazol-4-yl)-phenyl]-pyrimidin-5-yl}-pyrazol-1-yl)-cyclohexanecarboxylic acid tert-butylamide], less than 100 nM.
To `CC(=O)N1CC[C@@H](n2cc(-c3cnc(-c4cccc(-c5cnn(C)c5)c4)nc3)cn2)C[C@H]1C` [Example 249, 1-[(2R,4R)-2-Methyl-4-(4-{2-[3-(1-methyl-1H-pyrazol-4-yl)-phenyl]-pyrimidin-5-yl}-pyrazol-1-yl)-piperidin-1-yl]-ethanone] belongs 100 to 1000 nM; to `CC(CO)NC(=O)[C@H]1CC[C@H](n2cc(-c3cnc(-c4cccc(-c5cnn(C)c5)c4)nc3)cn2)CC1` (stereo partly drawn) [Example 188, trans-4-(4-{2-[3-(1-Methyl-1H-pyrazol-4-yl)-phenyl]-pyrimidin-5-yl}-pyrazol-1-yl)-cyclohexanecarboxylic acid (2-hydroxy-1-methyl-ethyl)-amide], 100 to 1000 nM.
Consider `COCCC(=O)N1CCC(n2cc(-c3cnc(-c4cccc(-c5cnn(C)c5)c4)nc3)cn2)CC1` [Example 109, 3-Methoxy-1-[4-(4-{2-[3-(1-methyl-1H-pyrazol-4-yl)-phenyl]-pyrimidin-5-yl}-pyrazol-1-yl)-piperidin-1-yl]-propan-1-one], for which the IC50 lay within 100 to 1000 nM.
The same measure for `Cn1cc(-c2cccc(-c3ncc(-c4cnn(CCC5CCOC5)c4)cn3)c2)cn1` (centres unmarked) [Example 131, 2-[3-(1-Methyl-1H-pyrazol-4-yl)-phenyl]-5-{1-[2-(tetrahydro-furan-3-yl)-ethyl]-1H-pyrazol-4-yl}-pyrimidine]: 100 to 1000 nM; for `Cn1cncc1-c1cccc(-c2ncc(-c3cnn(CC(=O)N4CCCC4)c3)cn2)c1` [Example 37, 2-(4-{2-[3-(3-Methyl-3H-imidazol-4-yl)-phenyl]-pyrimidin-5-yl}-pyrazol-1-yl)-1-pyrrolidin-1-yl-ethanone]: 1000 to 5000 nM; for `CNC(=O)[C@H]1CCC[C@@H](n2cc(-c3cnc(-c4cccc(-c5cnn(C)c5)c4)nc3)cn2)C1` (relative stereo) [Example 180, cis-3-(4-{2-[3-(1-Methyl-1H-pyrazol-4-yl)-phenyl]-pyrimidin-5-yl}-pyrazol-1-yl)-cyclohexanecarboxylic acid methylamide]: 100 to 1000 nM.
Take `C[C@@H](CO)NC(=O)[C@H]1CC[C@H](n2cc(-c3cnc(-c4cccc(-c5cnn(C)c5)c4)nc3)cn2)CC1` [Example 198, Trans-4-(4-{2-[3-(1-Methyl-1H-pyrazol-4-yl)-phenyl]-pyrimidin-5-yl}-pyrazol-1-yl)-cyclohexanecarboxylic acid ((S)-2-hydroxy-1-methyl-ethyl)-amide]: the IC50 was less than 100 nM.
To `Cn1cc(-c2cccc(-c3ncc(-c4cnn([C@H]5CC[C@H](C(=O)NCC(C)(C)O)CC5)c4)cn3)c2)cn1` [Example 227, trans-4-(4-{2-[3-(1-Methyl-1H-pyrazol-4-yl)-phenyl]-pyrimidin-5-yl}-pyrazol-1-yl)-cyclohexanecarboxylic acid (2-hydroxy-2-methyl-propyl)-amide] belongs less than 100 nM; to `CN(C)C(=O)C(C)(C)n1cc(-c2cnc(-c3cccc(-c4cnn(C)c4)c3)nc2)cn1` [Example 149, N,N-Dimethyl-2-(4-{2-[3-(1-methyl-1H-pyrazol-4-yl)-phenyl]-pyrimidin-5-yl}-pyrazol-1-yl)-isobutyramide], 100 to 1000 nM.
To `Cn1cc(-c2cccc(-c3ncc(-c4cnn([C@H]5CC[C@H](N6CCOCC6=O)CC5)c4)cn3)c2)cn1` [Example 254, 4-[4-(4-{2-[3-(1-Methyl-1H-pyrazol-4-yl)-phenyl]-pyrimidin-5-yl}-pyrazol-1-yl)-cyclohexyl]-morpholin-3-one] belongs less than 100 nM; to `Cn1cc(-c2cccc(-c3ncc(-c4cnn(Cc5cccnc5)c4)cn3)c2)cn1` [Example 22, 2-[3-(1-Methyl-1H-pyrazol-4-yl)-phenyl]-5-(1-pyridin-3-ylmethyl-1H-pyrazol-4-yl)-pyrimidine], 100 to 1000 nM; to `Cn1cc(-c2cccc(-c3ncc(-c4cnn(CCC5CCOC5=O)c4)cn3)c2)cn1` (centres unmarked) [Example 132, 3-[2-(4-{2-[3-(1-Methyl-1H-pyrazol-4-yl)-phenyl]-pyrimidin-5-yl}-pyrazol-1-yl)-ethyl]dihydro-furan-2-one], 100 to 1000 nM.
The same measure for `CC(=O)Cn1cc(-c2cnc(-c3cccc(-c4cnn(C)c4)c3)nc2)cn1` [Example 44, 1-(4-{2-[3-(1-Methyl-1H-pyrazol-4-yl)-phenyl]-pyrimidin-5-yl}-pyrazol-1-yl)-propan-2-one]: 100 to 1000 nM; for `CN(C)C(=O)C1CC2COCC(C1)C2n1cc(-c2cnc(-c3cccc(-c4cnn(C)c4)c3)nc2)cn1` (mixture of isomers) [Example 273, trans,cis-9-(4-{2-[3-(1-Methyl-1H-pyrazol-4-yl)-phenyl]-pyrimidin-5-yl}-pyrazol-1-yl)-3-oxa-bicyclo[3.3.1]nonane-7-carboxylic acid dimethylamide]: 100 to 1000 nM.
For `CN1CCN(C(=O)Cn2cc(-c3cnc(-c4cccc(-c5cnn(C)c5)c4)nc3)cn2)CC1` [Example 51, 1-(4-Methyl-piperazin-1-yl)-2-(4-{2-[3-(1-methyl-1H-pyrazol-4-yl)-phenyl]-pyrimidin-5-yl}-pyrazol-1-yl)-ethanone hydrochloride], the IC50 lay within 100 to 1000 nM.
On to `Cn1cc(-c2cc(O)cc(-c3ncc(-c4cnn(C5CCNCC5)c4)cn3)c2)cn1` [Example 34, 3-(1-Methyl-1H-pyrazol-4-yl)-5-[5-(1-piperidin-4-yl-1H-pyrazol-4-yl)-pyrimidin-2-yl]-phenol Formate], for which the IC50 fell in the range of 100 to 1000 nM.
